Source: patent US20230398334A1, “COATED BALLOON CATHETER FOR TREATING ARTERIOVENOUS FISTULA AND METHODS OF USING SAME” (Alucent Biomedical, Inc., priority 2022, published 2023)

Test system: arteriovenous fistula (AVF)
Test: Treatment of an AVF with the active agent (NVS treatment)
Assay type: in vivo

NCCOCCOCCNc1ccc2c3c(cccc13)C(=O)N(CCOCCOCCN1C(=O)c3cccc4c(NCCOCCOCCN)ccc(c34)C1=O)C2=O [Compound of Formula (I), 2,2′-((ethane-1,2-diylbis(oxy))bis(ethane-2,1-diyl))bis(6-((2-(2-(2-aminoethoxy)ethoxy)ethyl)amino)-1H-benzo[de]isoquinoline-1,3(2H)-dione)]
AVF open lumen area: significant increase | area of neointimal hyperplasia: without significantly affecting
